The source of these data is ChEMBL document CHEMBL3045044, “Further derivatives of 4-benzoyl-1,5-diphenyl-1H-pyrazole-3-carboxylic acid and their antibacterial activities” (2007).

Assay type in all cases: functional
For one experiment, the system named is Pseudomonas aeruginosa. Nature of the experiment: Antibacterial activity against Pseudomonas aeruginosa ATCC 9027 after overnight incubation by microdilution method. For orientation: Broth dilution looks for growth in wells or tubes with falling amounts of substance.
The subject of the next experiment is Proteus vulgaris. Nature of the experiment: Antibacterial activity against Proteus vulgaris Kukem 1329 after overnight incubation by microdilution method.
The next experiment has as its system Enterococcus faecalis. Nature of the experiment: Antibacterial activity against Enterococcus faecalis ATCC 29122 after overnight incubation by microdilution method.
In a further experiment the test system is Staphylococcus aureus. Nature of the experiment: Antibacterial activity against Staphylococcus aureus ATCC 29213 after overnight incubation by microdilution method.
For the next experiment, the system named is Streptococcus pyogenes. In words: Antibacterial activity against Streptococcus pyogenes ATCC 176 after overnight incubation by microdilution method.
A further experiment relates to Xanthomonas campestris. In words: Antibacterial activity against Xanthomonas campestris A235 after overnight incubation by microdilution method.
Another experiment concerns Salmonella enteritidis. In words: Antibacterial activity against Salmonella enterica subsp. enterica serovar Enteritidis ATCC 1376 after overnight incubation by microdilution method.
A further experiment has as its system Klebsiella pneumoniae. Nature of the experiment: Antibacterial activity against Klebsiella pneumoniae A137 after overnight incubation by microdilution method.
A further experiment relates to Escherichia coli. In words: Antibacterial activity against Escherichia coli B3704 after overnight incubation by microdilution method.
The subject of the next experiment is Bacillus subtilis. In words: Antibacterial activity against Bacillus subtilis ATCC 6633 after overnight incubation by microdilution method.

SMILES strings stand for the structures. ≈ marks a conversion by molar mass, not a printed value. Calls of active or inactive are those of the source. The rule behind the calls is not given here.

For the compound `O=C(N[C@H](CO)[C@H](O)c1ccc([N+](=O)[O-])cc1)C(Cl)Cl` [CHLORAMPHENICOL], the MIC was determined as 24 µg/mL (≈ 74.3 µM) with Pseudomonas aeruginosa; 24 µg/mL (≈ 74.3 µM) with Proteus vulgaris; 12 µg/mL (≈ 37.1 µM) in the experiment on Enterococcus faecalis; 6 µg/mL (≈ 18.6 µM) in the experiment with Staphylococcus aureus; 12 µg/mL (≈ 37.1 µM) in the experiment on Streptococcus pyogenes; 12 µg/mL (≈ 37.1 µM) against Xanthomonas campestris. The MIC amounted to 24 µg/mL (≈ 74.3 µM) against Salmonella enteritidis, 12 µg/mL (≈ 37.1 µM) against Klebsiella pneumoniae, 6 µg/mL (≈ 18.6 µM) in the experiment with Escherichia coli and 24 µg/mL (≈ 74.3 µM) with Bacillus subtilis.

With `NS(=O)(=O)NC(=O)c1nn(-c2ccccc2)c(-c2ccccc2)c1C(=O)c1ccccc1`, the MIC against Pseudomonas aeruginosa, in the experiment on Proteus vulgaris, in the experiment on Staphylococcus aureus, with Streptococcus pyogenes, against Xanthomonas campestris and against Salmonella enteritidis was 32 µg/mL (≈ 71.7 µM) each time. The MIC against Klebsiella pneumoniae and with Escherichia coli was 32 µg/mL (≈ 71.7 µM) each time. The MIC entry with Enterococcus faecalis and in the experiment on Bacillus subtilis was “inactive” throughout.

Consider `Nc1nnc(-c2ccccc2)c2c(-c3ccccc3)n(-c3ccccc3)nc12`, for which the MIC against Pseudomonas aeruginosa came to 32 µg/mL (≈ 88.1 µM); in the experiment on Proteus vulgaris, 512 µg/mL (≈ 1410 µM); in the experiment on Xanthomonas campestris, 512 µg/mL (≈ 1410 µM); against Escherichia coli, 512 µg/mL (≈ 1410 µM). The MIC entry with Enterococcus faecalis, in the experiment on Staphylococcus aureus, in the experiment on Streptococcus pyogenes, with Salmonella enteritidis, with Klebsiella pneumoniae and in the experiment on Bacillus subtilis was “inactive” throughout.

On to `N#Cc1nn(-c2ccccc2)c(-c2ccccc2)c1C(=O)c1ccccc1`, for which the MIC result with Pseudomonas aeruginosa, in the experiment on Enterococcus faecalis, in the experiment on Staphylococcus aureus, in the experiment with Streptococcus pyogenes, in the experiment on Salmonella enteritidis and in the experiment on Klebsiella pneumoniae was “inactive” in each case. Moreover, the MIC entry in the experiment on Bacillus subtilis is “inactive”. The MIC with Proteus vulgaris, with Xanthomonas campestris and with Escherichia coli was 512 µg/mL (≈ 1470 µM) throughout.

`O=c1onc(-c2ccccc2)c2c(-c3ccccc3)n(-c3ccccc3)nc12`: the MIC entry in the experiment with Pseudomonas aeruginosa, in the experiment on Enterococcus faecalis, in the experiment with Staphylococcus aureus, in the experiment on Salmonella enteritidis, with Klebsiella pneumoniae and in the experiment with Bacillus subtilis was “inactive” each time. Besides, the MIC in the experiment on Proteus vulgaris amounted to 512 µg/mL (≈ 1400 µM); with Streptococcus pyogenes, 512 µg/mL (≈ 1400 µM); in the experiment on Xanthomonas campestris, 256 µg/mL (≈ 701 µM); with Escherichia coli, 512 µg/mL (≈ 1400 µM).

In the case of `O=C(c1ccccc1)c1nn(-c2ccccc2)c(-c2ccccc2)c1C(=O)c1ccccc1`, the MIC entry in the experiment with Pseudomonas aeruginosa, in the experiment with Enterococcus faecalis, in the experiment with Staphylococcus aureus, with Streptococcus pyogenes, with Salmonella enteritidis and in the experiment with Klebsiella pneumoniae was “inactive” in each case. The MIC result with Escherichia coli and in the experiment with Bacillus subtilis was “inactive” in each case. Besides, the MIC with Proteus vulgaris and against Xanthomonas campestris was 512 µg/mL (≈ 1190 µM) in each case.

The MIC is the lowest concentration that inhibits growth of the organism.
